We go through seven molecules from EP2662081A1, “Therapeutic use of indole-dihydro-imidazole derivatives” (NOSCIRA, S.A., priority 2012, dated 2013).

The target of assay [1] is T1, human recombinant Cdk5/p35 heterodimer (Homo sapiens, UniProt Q00535).
T1 construct: purchased Invitrogen (Life Technologies)
The assay can be described thus: Cdk5 assay (Z'-LYTE FRET enzymatic activity). To be noted: 10 nM enzyme, 12.5 µM ATP, 2 µM Ser/Thr 12 peptide, 60 min at room temperature; concentration in M units; read-out: Cdk5 inhibition pEC50 average (converted). The class given is biochemical. The procedure:
The enzymatic activity of Cdk5 was determined with a commercial system based on the Z'-LYTE® technology, available from Life Technologies (Carlsbad, CA, USA), using human recombinant Cdk5/p35 heterodimer, also available from Invitrogen as the enzyme source. This technology utilizes the fluorescence resonance energy transfer ("FRET") process between fluorescein and coumarin. The assay principle is based on the differential sensitivity of phosphorylated and non-phosphorylated peptide to proteolytic cleavage, which precludes the energy transfer process between the two fluorophores attached to both sides of the cleavage site. […] The assay is performed in 384-well black plates, in a final volume of 10 µl, with 10 nM enzyme concentration, in 50 mM Hepes pH 7.5, 50 mM MgCl2, 5 mM EGTA and 0.05% Brij-35, using 12.5 µM ATP and 2 µM substrate peptide. The latter is a synthetic peptide provided by Invitrogen, under the commercial name "Ser/Thr 12 peptide", and it is based upon the sequence of Cdk7, containing Ser-164 and a (Ser/Thr)-Pro-X-(Lys/Arg) consensus sequence, wherein X is any residue. The peptide is labeled at both ends with fluorescein and coumarin. The assay is carried out in the presence of different concentrations of the tested compound, at a final 1% (v/v) DMSO concentration. After a 60 min incubation, at room temperature, 5 µl of a commercial protease solution (sold by the same vendor in the assay kit) is added and a subsequent 1h incubation at room temperature is performed, before adding 5 µl of a suitable "stop solution", also provided by the vendor in the kit. After that, fluorescence intensity is recorded, monitoring emission at both 445 and 520 nm, upon excitation at 400 nm. An emission ratio is finally calculated, using the quotient among the emission at 445 nm divided by that at 520 nm.
The emission ratio of each tested sample is normalized to that of the control wells, so that for every compound concentration the percentage of inhibition is calculated by using the following equation: % Inhibition = 100⋅(E-S)/(E-B) [formula] where "S" is the emission from the wells with the tested sample, "E" is the average emission from control wells with full enzyme activity and "B" is the average emission from wells with full enzyme inhibition. Inhibition values obtained for every compound concentration are finally used to calculate the pEC50 of the tested compound, this parameter being the negative value of the logarithm of the compound concentration, in M units, causing 50% of its maximum effect (i.e., the higher the pEC50 value the higher the potency of the compound). For that purpose the data were fitted to the following equation using the nonlinear regression function of GraphPad™ Prism 5.0 (GraphPad Software Inc.): % Inhibition = L + (H-L)/(1 + 10^(((logC+pEC50))^N)) [formula] where "L" is the lower asymptote of the theoretical sigmoidal curve, "H" is the higher asymptote, "C" is the concentration of compound in M units and "N" is the Hill coefficient.

In assay [2] the target is T2, human recombinant GSK3β (N-terminal 6His-tagged recombinant enzyme with an H350L mutation) (Homo sapiens, UniProt P49841).
T2 construct: 6His (N); purchased Millipore (Billerica, MA, USA)
T2 sequence (P49841 whole entry, stated change not applied): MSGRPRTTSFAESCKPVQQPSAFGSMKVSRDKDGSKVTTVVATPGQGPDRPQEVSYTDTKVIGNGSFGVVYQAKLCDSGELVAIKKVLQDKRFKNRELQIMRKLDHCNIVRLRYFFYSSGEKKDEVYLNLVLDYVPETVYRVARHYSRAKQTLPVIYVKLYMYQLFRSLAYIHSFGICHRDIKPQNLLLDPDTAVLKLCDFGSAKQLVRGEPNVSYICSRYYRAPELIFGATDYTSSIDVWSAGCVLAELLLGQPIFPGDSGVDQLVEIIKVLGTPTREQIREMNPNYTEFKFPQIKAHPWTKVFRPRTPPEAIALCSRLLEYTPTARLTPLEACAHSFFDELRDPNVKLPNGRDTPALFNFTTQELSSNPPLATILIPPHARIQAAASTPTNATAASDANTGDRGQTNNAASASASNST
In words: GSK-3 assay (Z'-LYTE FRET enzymatic activity). The class given is biochemical. To be noted: 2 nM enzyme, 12.5 µM ATP, 2 µM Ser/Thr 9 peptide, 60 min at room temperature; concentration in M units; read-out: GSK-3 inhibition pEC50 average (converted). The procedure: The enzymatic activity of GSK3β was determined with a commercial system based on the Z'-LYTE® technology, available from Life Technologies (Carlsbad, CA, USA), using human recombinant GSK3β (N-terminal 6His-tagged recombinant enzyme with an H350L mutation) from Millipore (Billerica, MA, USA) as the enzyme source. This technology utilizes the fluorescence resonance energy transfer ("FRET") process between fluorescein and coumarin. The assay principle is based on the differential sensitivity of phosphorylated and non-phosphorylated peptide to proteolytic cleavage, which precludes the energy transfer process between the two fluorophores attached to both sides of the cleavage site. […] The assay is performed in 384-well black plates, in a final volume of 10 µl, with 2 nM enzyme concentration in 50 mM Hepes pH 7.5, 50 mM MgCl2, 5 mM EGTA and 0.05% Brij-35, using 12.5 µM ATP and 2 µM substrate peptide. The latter is a synthetic peptide, provided by Invitrogen under the commercial name "Ser/Thr 9 peptide", and it is based upon the sequence of a GSK3β substrate protein (glycogen synthase I) containing Ser-641. The peptide is labeled at both ends with fluorescein and coumarin. The assay is carried out in the presence of different concentrations of the tested compound, at a final 1 % (v/v) DMSO concentration. After a 60 min incubation at room temperature, 5 µl of a commercial protease solution (sold by the same vendor in the assay kit) is added and a subsequent 1h incubation at room temperature is performed, before adding 5 µl of a suitable "stop solution", also provided by the vendor in the kit. After that, fluorescence intensity is recorded, monitoring emission at both 445 and 520 nm, upon excitation at 400 nm. An emission ratio is finally calculated, using the quotient among the emission at 445 nm divided by that at 520 nm.
The emission ratios for each concentration of compound are finally used to calculate the pEC50 value, according to the procedure described above for Cdk5.

T1 sequence (Q00535 whole entry): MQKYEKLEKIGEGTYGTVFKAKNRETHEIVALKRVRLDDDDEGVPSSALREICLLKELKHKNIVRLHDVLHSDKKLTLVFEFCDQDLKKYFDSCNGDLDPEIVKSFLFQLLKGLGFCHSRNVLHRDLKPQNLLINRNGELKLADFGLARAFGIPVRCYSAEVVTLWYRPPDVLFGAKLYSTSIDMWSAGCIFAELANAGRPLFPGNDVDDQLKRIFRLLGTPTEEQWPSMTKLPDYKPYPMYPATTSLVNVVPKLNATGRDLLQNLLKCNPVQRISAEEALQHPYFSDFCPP
T1 sequence (Q15078 whole entry partner): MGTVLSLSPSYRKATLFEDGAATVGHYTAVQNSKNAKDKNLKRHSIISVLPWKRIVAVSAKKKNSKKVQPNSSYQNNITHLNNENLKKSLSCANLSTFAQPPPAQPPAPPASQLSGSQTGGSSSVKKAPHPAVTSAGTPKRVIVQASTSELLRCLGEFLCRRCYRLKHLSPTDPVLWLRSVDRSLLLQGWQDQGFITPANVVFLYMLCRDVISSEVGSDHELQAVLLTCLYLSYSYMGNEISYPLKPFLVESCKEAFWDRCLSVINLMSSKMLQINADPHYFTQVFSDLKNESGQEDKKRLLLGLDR

As for `CN1CC(c2c(C(=O)O)[nH]c3ccc(Br)cc23)N(C)C1=N` (centres unmarked) [Compound 2], the EC50 in assay [1] was 2.82 µM; in assay [2] it was 74.1 µM.

As for `CN1C(=N)N(C)C(c2c(C(=O)O)[nH]c3ccc(Br)cc23)C1O` (centres unmarked) [Compound 5], the EC50 was 3.09 µM in assay [1] and 97.7 µM in assay [2].

For the molecule `CN1CC(c2c(C(=O)O)[nH]c3cc(O)c(Br)cc23)N(C)C1=N` (centres unmarked) [Compound 4], the EC50 was 0.0741 µM in assay [1] and 15.5 µM in assay [2].

Take `CN1C(=N)NCC1c1c(C(=O)O)[nH]c2cc(O)c(Br)cc12` (centres unmarked) [Compound 3]: the EC50 in assay [1] is 0.0955 µM; in assay [2], 11.2 µM.

With `CN1C(=N)N(C)C(c2c(C(=O)O)[nH]c3cc(O)c(Br)cc23)C1O` (centres unmarked) [Compound 6], the EC50 is 0.049 µM in assay [1] and 8.32 µM in assay [2].

`CN1C(N)=NCC1c1c(C(=O)O)[nH]c2ccccc12` (centres unmarked) [Compound 7]: the results for the EC50 in assay [1] and in assay [2] were 0.933 µM and 42.7 µM, respectively.

As to `CN1C(=N)NCC1c1c(C(=O)O)[nH]c2ccc(Br)cc12` (centres unmarked) [Compound 1], the EC50 was 1.1 µM in assay [1] and 35.5 µM in assay [2].
